The values below are quoted from earlier work in article PMC7269146, “Jingzhaotoxin-X, a gating modifier of Kv4.2 and Kv4.3 potassium channels purified from the venom of the Chinese tarantula Chilobrachys jingzhao” (The Journal of Venomous Animals and Toxins Including …, 2020).

One series has as its system Kv4.3 or Kv4.2. The note with it: ref [14], [19]-[21]; cited from earlier work. The text has this:
The tarantula Chilobrachys jingzhao is one of the largest venomous spiders in the south of China. Peptide toxins purified from spider venom provide crucial approaches to investigating Kv4 channels. […] Jingzhaotoxin-XI ...

The next series has as its system Nav channels. As to conditions: cited from earlier work. From the text: (§1) Table 1. Characterization of the main peptides from C. jingzhao venom | column: Main pharmacological activity
In a further series the test system is Kv4 channels. As to conditions: cited from earlier work. The text has this: (§2) Table 1. Characterization of the main peptides from C. jingzhao venom | column: Main pharmacological activity || The tarantula Chilobrachys jingzhao is one of the largest venomous spiders in the south of China. Peptide toxins purified from spider venom provide crucial approaches to investigating Kv4 channels. […] Jingzhaotoxin-XI ...

For a further series, the system named is Kv2.1 channels. As to conditions: cited from earlier work.
Excerpt: as §2

In another series the test system is Nav1.5 channels. The note with it: cited from earlier work.
Excerpt: as §1

The next series relates to rat cardiac Nav channels. The note with it: ref [10]; cited from earlier work.
Excerpt: as §1

The subject of a further series is Kv channel. The note with it: ref [18]; cited from earlier work.
Excerpt: as §1

The next series deals with Kv4.1 channels. As to conditions: ref [17]; cited from earlier work.
Excerpt: as §2

The next series has as its system calcium channel. The note with it: ref [35]; cited from earlier work. The text has this: A total of 6 cysteine residues were highly conserved among each spider toxin at specific locations.
The next series relates to Kv2 channels. As to conditions: ref [40], [41]; cited from earlier work.

Entries after “also recorded” stand apart in the source; their conditions may differ. Like-named read-outs stand apart in the source and are kept apart here.

Consider “SNX-482 (GVDKAGCRYMFGGCSVNDDCCPRLGCHSLFSYCAWDLTFSD; UniProt P56854 1-41, looked up)”, for which the “inhibition of Kv4.3 or Kv4.2” value in the series on Kv4.3 or Kv4.2 is reported as “inhibit either Kv4.3 or Kv4.2, or both of these channels”.
Jingzhaotoxin-IV: the “Main pharmacological activity, Nav channels” value with Nav channels (ref [13]) is “Modifies the activation and inactivation of Nav channels”.
Jingzhaotoxin-V: in the series with Kv4.3 or Kv4.2, the “inhibition of Kv4.3 or Kv4.2” value is listed as “inhibit either Kv4.3 or Kv4.2, or both of these channels”. The “Main pharmacological activity, Kv4 channels” value in the series with Kv4 channels was “Inhibits both Nav and Kv4 channels”. Moreover, in the series on Nav channels, the “Main pharmacological activity, Nav channels” value is “Inhibits both Nav and Kv4 channels”.
With Jingzhaotoxin-I, in the series with Kv2.1 channels (ref [7]-[9]), the “Main pharmacological activity, Kv2.1” value is “Inhibits Nav1.5 channels inactivation and Kv2.1 channels”. For the same substance, the “Main pharmacological activity, Nav1.5” value in the series with Nav1.5 channels (ref [7]-[9]) was “Inhibits Nav1.5 channels inactivation and Kv2.1 channels”.
Jingzhaotoxin-II: the “Main pharmacological activity, Nav1.5” value with Nav1.5 channels (ref [10]) was “Inhibits inactivation of both rat cardiac Nav channels and Nav1.5 channels”. Further, in the series on rat cardiac Nav channels, the “Main pharmacological activity, rat cardiac Nav channels” value is “Inhibits inactivation of both rat cardiac Nav channels and Nav1.5 channels”.
Jingzhaotoxin-XIII: the “Main pharmacological activity, Kv channel” value in the series on Kv channel was “Modifies Kv channel gating”.
In the case of Jingzhaotoxin-XII, the “Main pharmacological activity, Kv4.1” value with Kv4.1 channels is given as “specific Kv4.1 channel-gating modifier; also recorded: Inhibits Kv4.1 channels”.
With ω-grammotoxin SIA, the “activity on calcium channel” value in the series on calcium channel is recorded as “blocker of calcium channel”.
With Jingzhaotoxin-XI, the “Main pharmacological activity, Kv2.1” value with Kv2.1 channels (ref [15], [16]) is “Inhibits Nav1.5 inactivation and Kv2.1 channels”. Moreover, in the series with Nav1.5 channels (ref [15], [16]), the “Main pharmacological activity, Nav1.5” value was “Inhibits Nav1.5 inactivation and Kv2.1 channels”.
Take “HaTx1: gating-modifying toxin (ECRYLFGGCKTTSDCCKHLGCKFRDKYCAWDFTFS; UniProt P56852 50-84, looked up)”: the “suppression of Kv2 channels” value with Kv2 channels is listed as “suppressing Kv2 channels”.
As to Jingzhaotoxin-III, the “Main pharmacological activity, Kv2.1” value with Kv2.1 channels (ref [11], [12]) is “Inhibits Nav1.5 and Kv2.1 channels”. Also, the “Main pharmacological activity, Nav1.5” value with Nav1.5 channels (ref [11], [12]) was “Inhibits Nav1.5 and Kv2.1 channels”.
